Measured values as given in patent publication US20240124483A1, “Methods for the Treatment of Fibrotic Disease” (SHY Therapeutics, LLC, priority 2021, published 2024).

Key:
[1] = target: Cdc42 (Homo sapiens (Human), UniProt P60953); test: Cdc42 GTP Binding Domain Inhibition Assay; details: read-out: Cdc42: % inh.
Procedure: (§1) The following method was developed as specific assay for cdc42 and Rheb proteins.
(§2) Buffer-I: • 25 mM Tris-HCl, pH 7.4 • 27 mM KCl • 137 mM NaCl • 1 mM MgCl2 • 1 mM DTT
(§3) Buffer-IL: • 50 mM Tris-HCl, pH 7.0 • 1 mM MgCl2 • 1 mM DTT
(§4) The small GTPases proteins cdc42 and Rheb were expressed as His-tagged proteins. For the assay, the cdc42 and Rheb purified small GTPases proteins were diluted in Buffer-I or Buffer-II to a final concentration of 10-30 μg/mL. 200 μL of each diluted protein was added to a nickel-coated 96-well plate and incubated overnight at […]. Then the protein solution was discarded and 200 μL of Buffer-I or Buffer-II was added to each well in the presence of 1% DMSO. Compounds to be tested were added to the protein-coated wells at final concentration of 20 μM, and incubated for 3 hours at room temperature with and without 10-30 μg/mL of Sos added to the final hour of the incubation. When performing IC50 measurements a serial dilution of all tested concentrations was added. Then Cy3-GTP or Cy5-GTP was added to each well to a final concentration of 100 nM. The labeled GTP was incubated for 45 minutes at room temperature. Following GTP incubation, wells were washed 3× in Buffer-I or Buffer-II and 200 μL of Buffer-I or Buffer-II was added to each well. Following washes, the amount of bound labeled-GTP was measured using a SpectraMax M3 (Molecular Devices).

[2] = target: Rheb (Homo sapiens (Human), UniProt Q15382); test: Rheb GTP Binding Domain Inhibition Assay; details: read-out: Rheb: % inh.
Procedure: as §1, §2, §3, §4

[3] = tested on: Smad2/3 phosphorylation; test: Phospho-Smad2/3 Inhibition Assay in C2C12 (western blot); type: cell-based; details: Mus musculus; for IC50: C2C12, TGF-b1 stimulated
Procedure: (§5) Cell lines: Human tumor-derived pancreatic cancer cell line Panc-1 and mouse muscle myoblast C2C12 were purchased from American Type Culture Collection and grown in complete DMEM-High Glucose, supplemented with penicillin (100 U/mL), streptomycin (100 μg/mL), and 10% heat-inactivated FBS at 37° C. in a humidified incubator with 5% CO2.
Method: Cells were plated at 350000 cells/well density in a 12-well plate, allowed 3 hours to adhere to the plate, then starved in the appropriate medium in the presence of 0.5% FBS overnight. The small molecules to be tested were added to the cells in the final concentration of 10 μM in the presence of 0.3% DMSO for 3 hours incubation at 37° C. For IC50 value determination, serial dilutions of compounds were added to cells under the same conditions. Next, Panc-1 cells were stimulated with 10 ng/ml TGF-b1 for 1 hour, and C2C12 cells were stimulated with 10 ng/ml TGF-b1 for 20 minutes (recombinant human TGF-b1, R&D Systems). After stimulation cells were lysed with lysis buffer containing 1% Triton X-100, EDTA, and Halt™ Protease & Phosphatase Inhibitor Cocktail (Thermo Scientific). Protein concentration was assessed by BCA protein assay (Thermo Scientific). Phosphorylation level of Smad2/Smad3 was determined by western blot.
Western blot protocol: Equal amounts of protein (15-50 μg) were separated by SDS-PAGE and transferred to nitrocellulose membranes (Invitrogen by Thermo Fisher Scientific). The membrane was stained with Ponceau S Stain (Boston BioProducts) to verify uniform protein loading. Membranes were blocked with 10% milk and phosphorylation levels of Smad2/Smad3 were assessed by incubating overnight at 4° C. with the following antibodies: Phospho-Smad2 (Ser465/467) and Phosph-Smad3 (Ser423/425), both from Cell Signaling Technology. Then the membranes were incubated with HRP-conjugated secondary antibody (Jackson Immunoresearch, West Grove, PA). Bands were incubated in Amersham ECL Prime Western Blotting Detection Reagent (GE Healthcare) and visualized using the ChemiDoc MP imaging system (Bio-Rad).

[4] = tested on: JNK; test: JNK Activation Assay in C2C12 (western blot); type: cell-based, mouse; parameters: key: Y = yes; N = No; details: at 10 μM
Procedure: as §5
Method: Cells were plated at 350000 cells/well density in a 12-well plate, allowed 3 hours to adhere to the plate, then starved in the appropriate medium in the presence of 0.5% FBS overnight. The small molecules to be tested were added to the cells in the final concentration of 10 μM in the presence of 0.3% DMSO for 3 hours incubation at 37° C. For IC50 value determination, serial dilutions of compounds were added to cells under the same conditions. […] Protein concentration was assessed by BCA protein assay (Thermo Scientific). Phosphorylation level of JNK was determined by western blot.
Western blot protocol: Equal amounts of protein (15-50 μg) were separated by SDS-PAGE and transferred to nitrocellulose membranes (Invitrogen by Thermo Fisher Scientific). […] Membranes were blocked with 10% milk and phosphorylation levels of Smad2, Smad3, INK and p38 were assessed by incubating overnight at 4° C. with the following antibody: Phospho-SAPK/JNK (Thr183/Tyr185), from Cell Signaling Technology. […]

Rheb, sequence (Q15382 whole entry, species assumed, the tested form may be a part): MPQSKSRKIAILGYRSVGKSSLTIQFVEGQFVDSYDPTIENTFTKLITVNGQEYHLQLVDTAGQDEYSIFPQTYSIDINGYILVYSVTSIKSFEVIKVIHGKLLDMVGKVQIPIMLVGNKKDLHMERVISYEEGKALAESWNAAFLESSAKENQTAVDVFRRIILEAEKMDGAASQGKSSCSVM
Cdc42, sequence (P60953 whole entry, species assumed, the tested form may be a part): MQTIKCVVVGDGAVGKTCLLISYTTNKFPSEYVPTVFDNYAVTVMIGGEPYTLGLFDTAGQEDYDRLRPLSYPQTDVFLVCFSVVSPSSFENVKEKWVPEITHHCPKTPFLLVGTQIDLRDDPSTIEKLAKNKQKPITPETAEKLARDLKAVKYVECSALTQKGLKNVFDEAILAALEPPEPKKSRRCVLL

inhibition at 20 µM [1] [%] | inhibition at 20 µM [2] [%] | IC50 [3] [µM] | SMILES | Activation of JNK in C2C12 [4] | inhibition at 10 µM ([3]; 10 μM, 3 hours, C2C12 stimulated with 10 ng/ml TGF-b1 for 20 minutes, read-out: % inh of Smad2/3 phosphorylation in C2C12) [%]
1 to 25 | 26 to 45 | – | COc1cc(-c2sc3nc(-c4nccn4C)nc(N[C@@H]4CC[C@H](OC)C4)c3c2-c2ccccc2)ccn1 (racemic) [Compound 44, rac-N-((1R,3S)-3-Methoxycyclopentyl)-6-(2-methoxypyridin-4-yl)-2-(1-methyl-1H-imidazol-2-yl)-5-phenylthieno[2,3-d]pyrimidin-4-amine] | – | –
46 to 75 | 76 to 100 | – | COc1cc(-c2sc3nc(-c4nccn4C)nc(N[C@@H]4CC[C@@H](OC)C4)c3c2-c2ccccc2)ccn1 (racemic) [Compound 47, N-((1R,3R)-3-Methoxycyclopentyl)-6-(2-methoxypyridin-4-yl)-2-(1-methyl-1H-imidazol-2-yl)-5-phenylthieno[2,3-d]pyrimidin-4-amine] | – | –
– | – | 5 to 10 | COc1cccc(Nc2nc(-c3nccn3C)nc3sc(-c4ccn(C(C)C)n4)c(C)c23)c1 [Compound 17, 6-(1-Isopropyl-1H-pyrazol-3-yl)-N-(3-methoxyphenyl)-5-methyl-2-(1-methyl-1H-imidazol-2-yl)thieno[2,3-d]pyrimidin-4-amine] | – | –
– | – | 5 to 10 | COc1cccc(Nc2nc(-c3nccn3C)nc3sc(-c4ccn(C(C)C)n4)c(C)c23)n1 [Compound 18, 6-(1-Isopropyl-1H-pyrazol-3-yl)-N-(6-methoxypyridin-2-yl)-5-methyl-2-(1-methyl-1H-imidazol-2-yl)thieno[2,3-d]pyrimidin-4-amine] | – | –
– | – | > 10 | COc1cc(Nc2nc(-c3nccn3C)nc3sc(-c4ccn(C(C)C)n4)c(C)c23)ncn1 [Compound 19, 6-(1-Isopropyl-1H-pyrazol-3-yl)-N-(6-methoxypyrimidin-4-yl)-5-methyl-2-(1-methyl-1H-imidazol-2-yl)thieno[2,3-d]pyrimidin-4-amine] | – | –

More lines, now with the values behind:

SMILES | inhibition at 20 µM [1] [%] | inhibition at 20 µM [2] [%] | IC50 [3] [µM] | Activation of JNK in C2C12 [4] | inhibition at 10 µM ([3]; 10 μM, 3 hours, C2C12 stimulated with 10 ng/ml TGF-b1 for 20 minutes, read-out: % inh of Smad2/3 phosphorylation in C2C12) [%]
COCCNc1nc(-c2cn(C)cn2)nc2sc(-c3cccc(OC)c3Cl)c(-c3ccc(OC)cc3)c12 [Compound 8, 6-(2-Chloro-3-methoxyphenyl)-N-(2-methoxyethyl)-5-(4-methoxyphenyl)-2-(1-methyl-1H-imidazol-4-yl)thieno[2,3-d]pyrimidin-4-amine] | – | – | 1 to 4.99 | Y | –
COCCNc1nc(-c2nccn2C)nc2sc(-c3cccc(OC)c3Cl)c(-c3ccccc3)c12 [Compound 9, 6-(2-Chloro-3-methoxyphenyl)-N-(2-methoxyethyl)-2-(1-methyl-1H-imidazol-2-yl)-5-phenylthieno[2,3-d]pyrimidin-4-amine] | – | – | 1 to 4.99 | Y | 76 to 100
COc1cccc(-c2sc3nc(-c4nccn4C)nc(N[C@H]4C[C@H](OC)C4)c3c2-c2ccccc2)c1F [Compound 40, 6-(2-Fluoro-3-methoxyphenyl)-N-((1r,3r)-3-methoxycyclobutyl)-2-(1-methyl-1H-imidazol-2-yl)-5-phenylthieno[2,3-d]pyrimidin-4-amine] | 26 to 45 | 76 to 100 | – | – | –
COc1nccc(-c2sc3nc(-c4nccn4C)nc(N[C@H]4C[C@H](OC)C4)c3c2-c2ccccc2)c1F [Compound 45, 6-(3-Fluoro-2-methoxypyridin-4-yl)-N-((1r,3r)-3-methoxycyclobutyl)-2-(1-methyl-1H-imidazol-2-yl)-5-phenylthieno[2,3-d]pyrimidin-4-amine] | 46 to 75 | 76 to 100 | – | – | –
COc1cc(-c2sc3nc(-c4nccn4C)nc(N[C@H]4C[C@H](OC)C4)c3c2-c2ccccc2)ccn1 [Compound 46, N-((1r,3r)-3-Methoxycyclobutyl)-6-(2-methoxypyridin-4-yl)-2-(1-methyl-1H-imidazol-2-yl)-5-phenylthieno[2,3-d]pyrimidin-4-amine] | 46 to 75 | 76 to 100 | – | – | –
